# Structures can show the parent of a compound that is named as a salt. Where two headings read alike, the source gives them in different places.
# Key:
# [1] = Water content / hygroscopicity of the crystalline solid; assay type: physicochemical
# Description: All solvents used in this example are degassed with nitrogen using a gas dispersion tube for 15 min prior to use. To a stirred solution of 4.82 g of 9-deoxo-16,16-dimethyl-9-methylene-PGE2 in 50 ml of methanol is added a solution of 880 mg of potassium carbonate in 15 ml of water. The reaction mixture is then allowed to stand for 5 min at 25°C and then concentrated under reduced pressure at 35°C. Eight 250 ml portions of anhydrous tetrahydrofuran are added and evaporated to insure complete removal of water. The residue, a pale yellow foam, is dissolved in 15 ml of methanol and added dropwise under a nitrogen atmosphere with vigorous stirring to one liter of diethyl ether. The initial cloudy suspension yields a gum-like residue on the walls of the reaction vessel after about 1 hr. Continued vigorous stirring for 24 hr leads to gradual crystallization and resuspension as a uniform, easily filterable solid. This suspension is then filtered using a medium porosity sintered glass funnel. The solids are washed with 15 ml of fresh diethyl ether at 25°C. After drying for 2 hr in a vacuum desiccator at 25°C, a colorless free-flowing crystalline solid, 5.13 g, is obtained, pure crystalline 9-deoxo-16,16-dimethyl-9-methylene-PGE2 potassium salt. IR absorptions (cm^-1) are observed at 3134, 1652, 1572, 1467, 1392, 1337, 1364, 1344, 1102, 1024, 974, and 883. […]
# [2] = Plasma levels of 9-deoxo-16,16-dimethyl-9-methylene-PGE2 by radioimmunoassay after insertion of a suppository; assay type: in vivo, Rhesus monkeys (Macaca mulatta); details: rhesus monkey, plasma, 30 mg, plasma, read-out: Drug Levels
# Description: A. Midtrimester pregnant female Rhesus monkeys (Macaca mulatta) are used. (The first day of menstrual bleeding is designated Day 1 of the menstrual cycle; the first day a female is placed with a male for breeding is designated Day 1 of pregnancy. Pregnancy is confirmed by abdominal palpation of the uterus.)
# Blood samples are collected into heparinized syringes at specified times following insertion of a suppository in pregnant or non- pregnant monkeys. Plasma is extracted and assayed for 9-deoxo-16,16-dimethyl-9-methylene-PGE2 content by radioimmunoassay.
# C. Six suppository lots are prepared (4), each containing 9- deoxo-16,16-dimethyl-9-methylene-PGE2 or its crystalline potassium salt (Examples 1 and 2). Two lots are made with Witepsol H15 alone as the suppository base, two with Witepsol HIS wax plus 2% colloidal silicon dioxide (CSD) and two with Witepsol H15 plus 2% CSD plus 10% triacetin. Suppositories are prepared using Witepsol H15 suppository wax. Free acid or potassium salt is dispersed in the hot wax using a homogenizer. Two percent colloidal silicon dioxide (CSD) is mixed in by further homogenization. In the third formulation, triacetin (10%) is added before the CSD and then homogenized for one minute. Suppositories are formed in 800 mg aluminum molds and are stored at 4°C until used.
# D. The plasma levels of 9-deoxo-16,16-d1methy1-9-methy1ene-PGE2 in monkeys treated with 6 formulations containing either 9-deoxo-16,16-dimethyl-9-methylene-PGE2 free acid or potassium salt are shown in Tables 1-6. In general, higher blood levels are measured in pregnant Rhesus monkeys than in non-pregnant monkeys.
# [3] = Monkey #4, 30 mg Potassium Salt in H15 Suppositories
# [4] = Monkey #5, 30 mg Potassium Salt in H15 Suppositories
# [5] = Monkey #6 (pregnant animal with uterine recording), 30 mg Potassium Salt in H15 Suppositories
# [6] = Monkey #10, 30 mg Potassium Salt in H15 Plus 2% CSD Suppositories
# [7] = Monkey #11, 30 mg Potassium Salt in H15 Plus 2% CSD Suppositories
# [8] = Monkey #12 (pregnant animal with uterine recording), 30 mg Potassium Salt in H15 Plus 2% CSD Suppositories
# [9] = Monkey #16, 30 mg Potassium Salt in H15 Plus 2% CSD + 10% Triacetin Suppositories
# [10] = Monkey #17, 30 mg Potassium Salt in H15 Plus 2% CSD + 10% Triacetin Suppositories
# [11] = Monkey #18, 30 mg Potassium Salt in H15 Plus 2% CSD + 10% Triacetin Suppositories
smiles,measurement,setting,value
"C=C1C[C@@H](O)[C@H](/C=C/[C@@H](O)C(C)(C)CCCC)[C@H]1C/C=C\CCCC(=O)O [Potassium Salt, 9-deoxo-16,16-dimethyl-9-methylene-PGE2 potassium salt]",Water content,[1]; after 5 days at ambient humidity,0.16%
same,hygroscopicity,[1]; crystalline solid,non-hygroscopic
same,concentration at 0.25 h,[2]; [3],128 ng/mL
same,concentration at 0.5 h,"[2]; Monkey #4, 0.5 Hours, 30 mg Potassium Salt in H15 Suppositories",3.72 ng/mL
same,concentration at 1.5 h,[2]; [3],0.41 ng/mL
same,concentration at 2 h,[2]; [3],0.86 ng/mL
same,concentration at 3 h,[2]; [3],7.52 ng/mL
same,concentration at 4 h,[2]; [3],8.39 ng/mL
same,concentration at 6 h,[2]; [3],17.9 ng/mL
same,concentration at 24 h,[2]; [3],21.7 ng/mL
same,concentration at 0.25 h,[2]; [4],10.9 ng/mL
same,concentration at 1 h,[2]; [4],1.42 ng/mL
same,concentration at 1.5 h,[2]; [4],5.91 ng/mL
same,concentration at 2 h,[2]; [4],11.5 ng/mL
same,concentration at 3 h,[2]; [4],14.2 ng/mL
same,concentration at 4 h,[2]; [4],22.9 ng/mL
same,concentration at 6 h,[2]; [4],25 ng/mL
same,concentration at 24 h,[2]; [4],16.2 ng/mL
same,concentration at 0.25 h,[2]; [5],76.6 ng/mL
same,concentration at 0.5 h,"[2]; Monkey #6 (pregnant animal with uterine recording), 0.5 Hours, 30 mg Potassium Salt in H15 Suppositories",68.4 ng/mL
same,concentration at 1 h,[2]; [5],29.6 ng/mL
same,concentration at 1.5 h,[2]; [5],77.3 ng/mL
same,concentration at 2 h,[2]; [5],28.4 ng/mL
same,concentration at 3 h,[2]; [5],41.7 ng/mL
same,concentration at 4 h,[2]; [5],42.8 ng/mL
same,concentration at 6 h,[2]; [5],20.2 ng/mL
same,concentration at 24 h,[2]; [5],7.77 ng/mL
same,concentration at 0.25 h,[2]; [6],20.4 ng/mL
same,concentration at 1 h,[2]; [6],1.5 ng/mL
same,concentration at 1.5 h,[2]; [6],1.7 ng/mL
same,concentration at 2 h,[2]; [6],3.57 ng/mL
same,concentration at 3 h,[2]; [6],12.4 ng/mL
same,concentration at 4 h,[2]; [6],20.7 ng/mL
same,concentration at 6 h,[2]; [6],53.8 ng/mL
same,concentration at 24 h,[2]; [6],16 ng/mL
same,concentration at 0.5 h,"[2]; Monkey #10, .5 Hours, 30 mg Potassium Salt in H15 Plus 2% CSD Suppositories",2.39 ng/mL
same,concentration at 0.25 h,[2]; [7],19.8 ng/mL
same,concentration at 1 h,[2]; [7],6.61 ng/mL
same,concentration at 1.5 h,[2]; [7],8.13 ng/mL
same,concentration at 2 h,[2]; [7],9.8 ng/mL
same,concentration at 3 h,[2]; [7],9.48 ng/mL
same,concentration at 4 h,[2]; [7],18.7 ng/mL
same,concentration at 6 h,[2]; [7],28.7 ng/mL
same,concentration at 24 h,[2]; [7],23.4 ng/mL
same,concentration at 0.5 h,"[2]; Monkey #11, .5 Hours, 30 mg Potassium Salt in H15 Plus 2% CSD Suppositories",14 ng/mL
same,concentration at 0.25 h,[2]; [8],104 ng/mL
same,concentration at 1 h,[2]; [8],40.9 ng/mL
same,concentration at 1.5 h,[2]; [8],91.1 ng/mL
same,concentration at 2 h,[2]; [8],66.5 ng/mL
same,concentration at 3 h,[2]; [8],51.5 ng/mL
same,concentration at 4 h,[2]; [8],36.1 ng/mL
same,concentration at 6 h,[2]; [8],22.5 ng/mL
same,concentration at 24 h,[2]; [8],6.04 ng/mL
same,concentration at 0.5 h,"[2]; Monkey #12 (pregnant animal with uterine recording), .5 Hours, 30 mg Potassium Salt in H15 Plus 2% CSD Suppositories",55.7 ng/mL
same,concentration at 0.25 h,[2]; [9],7.45 ng/mL
same,concentration at 0.5 h,"[2]; Monkey #16, 0.5 Hours, 30 mg Potassium Salt in H15 Plus 2% CSD + 10% Triacetin Suppositories",7 ng/mL
same,concentration at 1 h,[2]; [9],12.6 ng/mL
same,concentration at 1.5 h,[2]; [9],19.9 ng/mL
same,concentration at 2 h,[2]; [9],40.2 ng/mL
same,concentration at 3 h,[2]; [9],45.5 ng/mL
same,concentration at 4 h,[2]; [9],31.4 ng/mL
same,concentration at 6 h,[2]; [9],34.5 ng/mL
same,concentration at 24 h,[2]; [9],14.2 ng/mL
same,concentration at 0.25 h,[2]; [10],7.98 ng/mL
same,concentration at 0.5 h,"[2]; Monkey #17, 0.5 Hours, 30 mg Potassium Salt in H15 Plus 2% CSD + 10% Triacetin Suppositories",2.15 ng/mL
same,concentration at 1 h,[2]; [10],1.27 ng/mL
same,concentration at 1.5 h,[2]; [10],1.86 ng/mL
same,concentration at 2 h,[2]; [10],1.75 ng/mL
same,concentration at 3 h,[2]; [10],20.1 ng/mL
same,concentration at 4 h,[2]; [10],3.13 ng/mL
same,concentration at 6 h,[2]; [10],6.97 ng/mL
same,concentration at 24 h,[2]; [10],21.9 ng/mL
same,concentration at 0.25 h,[2]; [11],56.8 ng/mL
same,concentration at 0.5 h,"[2]; Monkey #18, 0.5 Hours, 30 mg Potassium Salt in H15 Plus 2% CSD + 10% Triacetin Suppositories",207 ng/mL
same,concentration at 1 h,[2]; [11],64.4 ng/mL
same,concentration at 1.5 h,[2]; [11],38.3 ng/mL
same,concentration at 2 h,[2]; [11],87.2 ng/mL
same,concentration at 3 h,[2]; [11],47.8 ng/mL
same,concentration at 4 h,[2]; [11],35.5 ng/mL
same,concentration at 6 h,[2]; [11],33.9 ng/mL
same,concentration at 24 h,[2]; [11],8.31 ng/mL

# From patent publication EP0097439A2, “A crystalline prostaglandin salt” (THE UPJOHN COMPANY, priority 1982, dated 1984)
